Experimental data published in publication doi:10.1101/203372v2 (biorxiv, 2017).

Target: T1, GST-HDAC6, human, recombinant (recombinant HDAC6 WT) (Homo sapiens, UniProt Q9UBN7)
T1 sequence (Q9UBN7 1-1215): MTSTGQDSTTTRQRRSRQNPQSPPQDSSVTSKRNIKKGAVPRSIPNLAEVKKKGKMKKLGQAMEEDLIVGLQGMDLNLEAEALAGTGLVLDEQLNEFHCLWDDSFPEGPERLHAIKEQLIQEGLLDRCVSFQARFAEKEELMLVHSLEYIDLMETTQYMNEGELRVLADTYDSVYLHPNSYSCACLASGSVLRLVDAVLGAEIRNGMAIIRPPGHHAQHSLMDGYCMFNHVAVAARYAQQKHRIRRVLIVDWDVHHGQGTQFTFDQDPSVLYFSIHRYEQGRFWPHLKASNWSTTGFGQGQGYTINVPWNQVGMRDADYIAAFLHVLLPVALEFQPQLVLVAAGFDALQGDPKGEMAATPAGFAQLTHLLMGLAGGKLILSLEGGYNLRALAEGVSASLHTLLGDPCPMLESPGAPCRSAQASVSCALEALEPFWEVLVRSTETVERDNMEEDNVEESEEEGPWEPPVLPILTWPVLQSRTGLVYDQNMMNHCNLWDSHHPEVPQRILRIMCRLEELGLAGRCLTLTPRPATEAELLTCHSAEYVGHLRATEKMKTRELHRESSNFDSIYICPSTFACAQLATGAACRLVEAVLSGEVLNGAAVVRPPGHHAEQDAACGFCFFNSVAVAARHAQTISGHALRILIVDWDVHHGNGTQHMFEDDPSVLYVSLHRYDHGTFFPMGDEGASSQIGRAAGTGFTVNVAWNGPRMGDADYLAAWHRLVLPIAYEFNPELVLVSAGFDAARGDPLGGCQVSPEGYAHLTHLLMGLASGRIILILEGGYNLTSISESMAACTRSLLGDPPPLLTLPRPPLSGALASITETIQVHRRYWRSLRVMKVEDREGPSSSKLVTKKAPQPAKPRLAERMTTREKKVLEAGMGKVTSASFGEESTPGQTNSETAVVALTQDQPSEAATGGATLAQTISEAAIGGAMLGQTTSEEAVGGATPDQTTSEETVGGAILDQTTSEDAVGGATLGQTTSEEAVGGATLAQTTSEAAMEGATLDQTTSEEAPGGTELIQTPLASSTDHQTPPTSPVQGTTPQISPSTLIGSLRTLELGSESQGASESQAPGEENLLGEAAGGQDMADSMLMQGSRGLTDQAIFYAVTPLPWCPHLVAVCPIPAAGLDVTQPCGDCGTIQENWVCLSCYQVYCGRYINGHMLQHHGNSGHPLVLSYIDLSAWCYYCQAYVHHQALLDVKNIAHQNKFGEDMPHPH
Experiment: ELISA PPI competition, HDAC6 binding to immobilised His6-ubiquitin

An IC50 of 78 µM was found for Cc1ccccc1OCCCn1cc(C=C2C(=N)N3N=CSC3=NC2=O)c2ccccc21 [compound 16] in this work.
